Type in all cases: binding
Assay [1] addresses T1, Y120A-SSB-2ΔSB (Mus musculus, UniProt O88838, Y120A).
T1 construct: tyrosine 120 had been mutated to alanine (Y120A-SSB-2ΔSB; a.a.12-224); GST (N, cleaved yes); made in house; host or cells: E. coli (bacterially expressed)
T1 sequence (O88838 12-224 Y120A): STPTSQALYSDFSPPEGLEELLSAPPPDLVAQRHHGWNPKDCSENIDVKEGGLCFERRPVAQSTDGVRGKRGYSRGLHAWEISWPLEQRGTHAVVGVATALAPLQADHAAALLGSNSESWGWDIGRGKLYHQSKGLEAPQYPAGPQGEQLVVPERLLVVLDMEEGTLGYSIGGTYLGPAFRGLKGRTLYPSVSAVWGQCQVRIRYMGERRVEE
The assay can be described thus: ITC of Y120A mutant SSB-2 SPRY domain with iNOS peptide. The conditions noted are these: versus SSB-2ΔSB. Here is the method:
Wild-type and mutant iNOS peptides (Table 2), corresponding to Lys19-Thr31 of mouse iNOS, were synthesized by GL Biochem (Shanghai) Ltd. These peptides were N-terminal acetylated and C-terminal amidated. All ITC measurements were carried out at 25° C. using a Microcal omega VP-ITC (Microcal Inc., Northampton, Mass.). SSB-2ΔSB was dialysed against buffer (100 mM TrisHCl, 150 mM NaCl, pH 8.0), and wild-type and mutant iNOS N-terminal peptides were prepared in the same buffer from 5 mM stocks. Solutions of 5 to 10 μM SSB-2ΔSB in the cell were titrated by injection of a total of 290 μL of 50-200 μM of iNOS peptides. Data analysis was performed using the evaluation software, MicroCal Origin version 5.0. All curves were fitted using the nonlinear least-squares fitter and the “One Set of Sites” model.
Additional conserved residues flanking the DINNN (SEQ ID NO:36) sequence (Lys22, Val28 and Lys30) also contribute to the interaction, as alanine substitutions of these residues had 2- to 4-fold lower SSB-2 binding affinities than the wild-type peptide. […] Mutation of Glu21 had no effect on SSB-2:iNOS peptide binding. […] Binding of an SSB-2-SPRY domain in which tyrosine 120 had. been mutated to alanine (Y120A-SSB-2ΔSB) was assessed by ITC. The iNOS peptide bound Y120A-SSB-2ΔSB with ˜5000-fold reduced affinity, evidence that Tyr120 in SSB-2 is critical for binding to the iNOS peptide (Table 2).

Assay [2] addresses T2, SSB-2ΔSB (Mus musculus, UniProt O88838).
T2 construct: GST (N, cleaved yes); made in house; host or cells: E. coli BL21 (DE3)
T2 sequence (O88838 12-224): T1 sequence (O88838 12-224 Y120A) with A109Y
The assay can be described thus: 1H-15N HSQC NMR titration of iNOS peptide into 15N-labelled SSB-2ΔSB. The conditions noted are these: 0.1 mM SSB-2ΔSB, ratios 1:0.5, 1:1, 1:1.5, pH 7.0, 22° C. Here is the method:
NMR spectra were recorded on an Avance 500 spectrometer equipped with a cryoprobe. The ^1H chemical shifts were referenced indirectly to DSS at 0 ppm via the H2O signal, and the ^13C and ^15N chemical shifts were referenced indirectly using absolute frequency ratios (Wishart et al., 1995). Spectra were processed using Topspin version 1.3 (Bruker Biospin) and analysed using XEASY, version 1.3. ^15N-labelled SSB-2ΔSB Sample for NMR analysis were prepared in H2O containing 5% ^2H2O, 10 mM sodium phosphate, 50 mM sodium chloride, 2 mM EDTA, 2 mM DTT and 0.02% (w/v) sodium azide at pH 7.0. Two-dimensional ^1H-^15N HSQC spectrum of a 0.1 mM ^15N-labelled SSB-2ΔSB sample was recorded and 22° C. using a data matrix size of 2048×256 and with 128 scans per t1 increment. The spectral widths were 13.5 ppm for ^1H and 40.0 ppm for ^15N; carrier frequencies were 4.7 ppm for ^1H and 118 ppm for ^15N. Unlabelled iNOS N-terminal peptide (wild-type) were then titrated into the ^15N-labelled SSB-2ΔSB sample, and ^1H-^15N HSQC spectra recorded at ^15N-labelled SSB-2ΔSB:iNOS peptide ratios of 1:0.5, 1:1, and 1:1.5.
Nuclear magnetic resonance (NMR) spectroscopy was then used to further analyze the SSB-2:iNOS peptide interaction. […]

Assay [3] concerns the target T3, iNOS/SSB-2 interaction (Mus musculus, UniProt O88838).
T3 construct: cDNA clones covering the entire coding region of murine SSB-1 to −4 were isolated; expressed in transfected cells; host or cells: 293T cells (Flag-SSB-2); C57BL/6 BMDM lysate (iNOS)
T3 sequence (O88838 1-264): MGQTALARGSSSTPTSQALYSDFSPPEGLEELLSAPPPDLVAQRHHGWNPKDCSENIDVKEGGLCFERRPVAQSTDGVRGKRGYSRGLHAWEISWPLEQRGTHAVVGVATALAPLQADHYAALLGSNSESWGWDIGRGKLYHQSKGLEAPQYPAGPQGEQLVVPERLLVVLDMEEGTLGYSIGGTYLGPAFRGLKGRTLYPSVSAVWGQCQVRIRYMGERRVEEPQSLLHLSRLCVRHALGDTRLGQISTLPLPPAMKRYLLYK
The assay can be described thus: Peptide competition assay (anti-Flag immunoprecipitation, anti-iNOS Western blot). Here is the method:
293T cells were transfected with vector alone or a construct expressing FLAG-tagged SSB-2 and lysed as described above. iNOS peptide (SEQ ID NO:3) was added in increasing concentrations (0.001, 0.01, 0.1, 1.0 and 10 μM) to iNOS-expressing lysate generated from C57BL/6 BMDM stimulated with LPS/IFNγ. 293T lysates were then added to the macrophage/iNOS peptide lysates and incubated for 1 h at 4° C. Anti-Flag antibody coupled to Sepharose beads (M2, Sigma) was added to the lysate mix and incubated for 3 h at 4° C. Complexes were then separated by SDS-PAGE and analysed by Western blot with anti-iNOS antibodies.
Given that there are a number of disease states where elevated or prolonged iNOS expression might be beneficial, the present inventors were interested in whether the iNOS/SSB-2 interaction could be disrupted. As a simple proof-of-concept experiment, free iNOS peptide was used to competitively disrupt the interaction. 293T cells were transiently transfected with cDNA expressing Flag-tagged SSB-2, lysed and mixed with iNOS-expressing macrophage lysates which contained increasing amounts of free iNOS peptide.
For orientation: In western blotting, separated proteins are transferred to a membrane and probed.

The record followed here is patent publication US20120308570A1, “METHODS FOR TREATING DISEASES” (priority 2009, published 2012).

Residue numbers refer to the chain shown, from its start.

For “Ac-KEEKDINNNVKKT-NH2 [I, Ac-KEEKDINNNVKKT-NH2]”, the “fold reduced affinity for Y120A-SSB-2ΔSB” value in assay [1] is roughly 5000 fold. For the same substance, the “binding to SSB-2ΔSB by NMR” value in assay [2] is reported as “bound to SSB-2ΔSB”. For the same substance, the “inhibition of SSB-2 interaction with iNOS” value in assay [3] (100 nM iNOS peptide) was “modestly inhibited”; in assay [3] (1000 nM peptide), “completely inhibited”.
